Results published in ChEMBL document CHEMBL1275438, “The human CXC chemokine granulocyte chemotactic protein 2 (GCP-2)/CXCL6 possesses membrane-disrupting properties and is antibacterial” (2008).
Converted amounts (≈) assume the structure as drawn. The source made the active and inactive calls. No cut-off for these calls is given here.

Key:
Assay type in all cases: functional
[1] = system: Lipid bilayer; assay: Induction of negatively charged DOPE/DOPG liposome disruption assessed as percent leakage after <1000 sec by spectrometry
[2] = system: Lipid bilayer; assay: Induction of negatively charged DOPE/DOPG liposome disruption by spectrometry in presence of 150 mM sodium chloride
[3] = system: Streptococcus pyogenes; assay: Antibacterial activity against Streptococcus pyogenes AP1 after 1 hr by bactericidal assay
[4] = system: Escherichia coli; assay: Antibacterial activity against Escherichia coli 37.4 after 1 hr by bactericidal assay

Structure (SMILES)	Activity [1]	Activity [2]	MBC [3]	MBC ([3]; Streptococcus pyogenes, AP1, 1 h, read-out: MBC)	MBC [4]	MBC ([4]; Escherichia coli, 37.4, 1 h, read-out: MBC)
CC[C@H](C)[C@H](NC(=O)[C@H](CCCCN)NC(=O)[C@H](CCC(N)=O)NC(=O)[C@@H](NC(=O)[C@@H](NC(=O)[C@H](CCCCN)NC(=O)[C@H](CCCCN)NC(=O)[C@H](CC(C)C)NC(=O)[C@H](Cc1ccccc1)NC(=O)[C@@H]1CCCN1C(=O)[C@@H](C)N)C(C)C)[C@@H](C)CC)C(=O)N[C@@H](CC(C)C)C(=O)N[C@@H](CC(=O)O)C(=O)N[C@@H](CO)C(=O)NCC(=O)N[C@@H](CC(N)=O)C(=O)N[C@@H](CCCCN)C(=O)N[C@@H](CCCCN)C(=O)N[C@@H](CC(N)=O)C(=O)O	70%	Active	–	–	–	–
CC[C@H](C)[C@H](NC(=O)[C@H](CCCCN)NC(=O)[C@H](CCC(N)=O)NC(=O)[C@@H](NC(=O)[C@@H](NC(=O)[C@H](CCCCN)NC(=O)[C@H](CCCCN)NC(=O)[C@H](CC(C)C)NC(=O)[C@H](Cc1ccccc1)NC(=O)[C@@H]1CCCN1C(=O)[C@H](C)N)C(C)C)[C@@H](C)CC)C(=O)N[C@@H](CC(C)C)C(=O)N[C@@H](CC(=O)O)C(=O)N[C@@H](CO)C(=O)NCC(=O)N[C@@H](CC(N)=O)C(=O)N[C@@H](CCCCN)C(=O)N[C@@H](CCCCN)C(=O)N[C@@H](CC(N)=O)C(=O)O	–	–	9.5 µM (≈ 20.3 µg/mL)	5.7 µM (≈ 12.2 µg/mL)	9.5 µM (≈ 20.3 µg/mL)	5.6 µM (≈ 12 µg/mL)
